# Assays:
# Assay in all cases: Caliper, Mobility shift assay off-chip
# [1] = molecular target: ACVR1B (human) (UniProt P36896)
# [2] = molecular target: AKT3 (human) (UniProt Q9Y243)
# [3] = molecular target: CAMK1 (human) (UniProt Q14012)
# [4] = molecular target: CDK1 CCNB1 (human) (UniProt P06493+P14635)
# [5] = molecular target: CHUK (human) (UniProt O15111)
# [6] = tested on: EGFR (human), P00533 [L858R]
# [7] = tested on: EGFR (human), P00533 [L861Q]
# [8] = molecular target: FES (human) (UniProt P07332)
# Chain of FES (human) (P07332 whole entry, looked up): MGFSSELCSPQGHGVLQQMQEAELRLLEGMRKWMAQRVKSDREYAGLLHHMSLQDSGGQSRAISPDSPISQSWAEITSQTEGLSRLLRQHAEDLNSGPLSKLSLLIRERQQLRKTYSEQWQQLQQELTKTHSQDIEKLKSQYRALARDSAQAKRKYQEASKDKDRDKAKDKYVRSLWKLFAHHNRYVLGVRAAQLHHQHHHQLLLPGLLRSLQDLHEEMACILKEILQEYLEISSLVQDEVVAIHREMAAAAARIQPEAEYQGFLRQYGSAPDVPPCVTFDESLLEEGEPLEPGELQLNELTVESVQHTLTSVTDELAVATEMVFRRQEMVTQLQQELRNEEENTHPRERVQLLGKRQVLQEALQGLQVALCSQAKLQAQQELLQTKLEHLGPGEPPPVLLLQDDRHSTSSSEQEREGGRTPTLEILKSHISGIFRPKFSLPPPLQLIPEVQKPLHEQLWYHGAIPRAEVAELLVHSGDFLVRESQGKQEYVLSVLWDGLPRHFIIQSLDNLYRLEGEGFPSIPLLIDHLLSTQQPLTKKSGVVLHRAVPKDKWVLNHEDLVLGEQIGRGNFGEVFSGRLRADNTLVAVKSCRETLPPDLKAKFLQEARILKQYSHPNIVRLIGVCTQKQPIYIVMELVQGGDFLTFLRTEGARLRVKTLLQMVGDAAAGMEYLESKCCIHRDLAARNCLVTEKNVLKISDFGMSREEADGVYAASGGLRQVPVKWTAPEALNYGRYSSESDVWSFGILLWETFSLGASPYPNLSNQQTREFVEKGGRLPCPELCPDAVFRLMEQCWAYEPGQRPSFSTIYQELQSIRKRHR
# [9] = molecular target: FGFR4 (human) (UniProt P22455)
# [10] = molecular target: GSK3B (human) (UniProt P49841)
# Chain of GSK3B (human) (P49841 whole entry, looked up): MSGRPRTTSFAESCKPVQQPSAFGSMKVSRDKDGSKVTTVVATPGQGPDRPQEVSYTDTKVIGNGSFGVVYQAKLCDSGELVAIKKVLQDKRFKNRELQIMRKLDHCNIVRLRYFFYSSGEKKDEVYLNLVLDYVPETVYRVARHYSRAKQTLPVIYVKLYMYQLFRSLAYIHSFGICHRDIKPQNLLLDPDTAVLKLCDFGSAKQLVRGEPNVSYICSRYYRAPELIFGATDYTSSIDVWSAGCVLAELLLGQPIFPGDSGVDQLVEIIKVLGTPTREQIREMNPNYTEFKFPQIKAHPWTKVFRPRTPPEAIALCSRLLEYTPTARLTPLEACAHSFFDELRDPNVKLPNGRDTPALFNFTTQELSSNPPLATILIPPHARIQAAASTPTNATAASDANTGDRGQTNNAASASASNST
# [11] = molecular target: INSRR (human) (UniProt P14616)
# [12] = molecular target: JAK2 JH1 JH2 (human) (UniProt O60674)
# [13] = molecular target: JAK3 JH1 JH2 (human) (UniProt P52333)
# [14] = tested on: KIT (human), P10721 [D816V]
# [15] = molecular target: MAP3K5 (human) (UniProt Q99683)
# [16] = molecular target: MKNK2 (human) (UniProt Q9HBH9)
# Chain of MKNK2 (human) (Q9HBH9 whole entry, looked up): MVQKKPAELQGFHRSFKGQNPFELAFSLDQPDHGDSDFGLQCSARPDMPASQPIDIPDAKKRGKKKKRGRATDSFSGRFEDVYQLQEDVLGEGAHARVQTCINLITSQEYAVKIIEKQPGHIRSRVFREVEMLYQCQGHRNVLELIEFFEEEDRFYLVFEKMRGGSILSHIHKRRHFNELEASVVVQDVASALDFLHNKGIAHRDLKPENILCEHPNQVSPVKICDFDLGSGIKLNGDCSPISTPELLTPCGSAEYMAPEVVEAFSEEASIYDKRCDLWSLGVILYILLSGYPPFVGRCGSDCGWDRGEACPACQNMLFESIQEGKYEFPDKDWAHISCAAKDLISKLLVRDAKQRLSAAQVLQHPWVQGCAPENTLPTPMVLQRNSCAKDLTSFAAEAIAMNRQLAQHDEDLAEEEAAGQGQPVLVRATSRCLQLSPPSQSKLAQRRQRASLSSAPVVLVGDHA
# [17] = molecular target: MUSK (human) (UniProt O15146)
# [18] = molecular target: PAK6 (human) (UniProt Q9NQU5)
# Chain of PAK6 (human) (Q9NQU5 whole entry, looked up): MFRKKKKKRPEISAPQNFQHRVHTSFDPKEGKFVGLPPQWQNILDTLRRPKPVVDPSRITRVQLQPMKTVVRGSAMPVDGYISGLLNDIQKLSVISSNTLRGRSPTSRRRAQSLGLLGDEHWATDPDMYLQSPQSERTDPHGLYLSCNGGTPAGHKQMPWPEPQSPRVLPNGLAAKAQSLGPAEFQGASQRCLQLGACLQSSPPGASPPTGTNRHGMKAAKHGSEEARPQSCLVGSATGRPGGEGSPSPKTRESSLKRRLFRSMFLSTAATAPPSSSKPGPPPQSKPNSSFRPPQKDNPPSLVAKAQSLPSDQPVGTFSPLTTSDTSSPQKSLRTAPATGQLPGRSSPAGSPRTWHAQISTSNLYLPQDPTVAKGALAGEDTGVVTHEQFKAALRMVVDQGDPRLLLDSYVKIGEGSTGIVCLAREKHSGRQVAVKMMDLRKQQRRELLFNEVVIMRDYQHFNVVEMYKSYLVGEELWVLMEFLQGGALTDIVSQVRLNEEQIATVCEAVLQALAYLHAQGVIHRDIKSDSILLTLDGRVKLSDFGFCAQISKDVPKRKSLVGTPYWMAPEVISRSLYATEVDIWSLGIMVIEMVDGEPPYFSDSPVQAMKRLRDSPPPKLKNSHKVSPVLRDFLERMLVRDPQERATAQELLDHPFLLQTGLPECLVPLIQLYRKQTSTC
# [19] = molecular target: PRKCQ (human) (UniProt Q04759)
# Chain of PRKCQ (human) (Q04759 whole entry, looked up): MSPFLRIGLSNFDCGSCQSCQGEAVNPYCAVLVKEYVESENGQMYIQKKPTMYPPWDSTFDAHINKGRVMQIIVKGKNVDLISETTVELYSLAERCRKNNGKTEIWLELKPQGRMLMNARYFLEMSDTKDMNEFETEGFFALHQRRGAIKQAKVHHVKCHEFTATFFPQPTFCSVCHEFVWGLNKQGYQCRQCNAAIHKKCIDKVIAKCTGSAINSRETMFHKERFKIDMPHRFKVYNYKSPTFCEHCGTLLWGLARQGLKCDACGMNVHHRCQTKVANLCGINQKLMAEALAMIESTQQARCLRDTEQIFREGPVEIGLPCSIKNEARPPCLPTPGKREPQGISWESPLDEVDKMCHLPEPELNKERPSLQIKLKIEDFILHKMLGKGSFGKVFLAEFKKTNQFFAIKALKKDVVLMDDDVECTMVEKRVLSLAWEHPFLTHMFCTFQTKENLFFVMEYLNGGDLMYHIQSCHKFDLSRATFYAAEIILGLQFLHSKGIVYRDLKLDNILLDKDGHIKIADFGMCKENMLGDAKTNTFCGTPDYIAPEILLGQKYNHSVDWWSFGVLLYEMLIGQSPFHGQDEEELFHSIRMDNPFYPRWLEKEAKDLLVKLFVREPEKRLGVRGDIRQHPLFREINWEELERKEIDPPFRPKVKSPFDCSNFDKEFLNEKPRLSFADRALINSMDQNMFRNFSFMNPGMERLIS
# [20] = molecular target: PTK6 (human) (UniProt Q13882)
# [21] = molecular target: ROCK2 (human) (UniProt O75116)
# [22] = molecular target: SIK1 (human) (UniProt P57059)
# [23] = molecular target: SRPK2 (human) (UniProt P78362)
# Chain of SRPK2 (human) (P78362 whole entry, looked up): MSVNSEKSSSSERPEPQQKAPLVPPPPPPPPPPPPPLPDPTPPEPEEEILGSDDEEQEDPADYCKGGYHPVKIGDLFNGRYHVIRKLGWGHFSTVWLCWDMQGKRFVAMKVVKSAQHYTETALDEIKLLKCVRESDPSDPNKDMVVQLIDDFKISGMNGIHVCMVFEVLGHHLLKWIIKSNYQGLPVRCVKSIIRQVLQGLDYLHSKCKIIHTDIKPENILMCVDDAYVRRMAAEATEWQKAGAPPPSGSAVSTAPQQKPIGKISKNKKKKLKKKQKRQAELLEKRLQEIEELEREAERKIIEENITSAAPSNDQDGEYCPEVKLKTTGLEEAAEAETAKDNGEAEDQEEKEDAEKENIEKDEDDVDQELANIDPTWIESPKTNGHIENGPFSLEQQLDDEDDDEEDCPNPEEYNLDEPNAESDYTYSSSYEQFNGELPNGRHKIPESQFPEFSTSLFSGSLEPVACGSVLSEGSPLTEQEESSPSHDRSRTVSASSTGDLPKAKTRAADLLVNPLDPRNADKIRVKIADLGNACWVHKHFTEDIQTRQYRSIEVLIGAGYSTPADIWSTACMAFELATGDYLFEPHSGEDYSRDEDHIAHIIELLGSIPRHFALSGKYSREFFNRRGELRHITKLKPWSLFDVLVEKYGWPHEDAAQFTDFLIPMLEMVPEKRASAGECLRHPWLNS
# [24] = molecular target: SRPK3 (human) (UniProt Q9UPE1)
# [25] = molecular target: STK4 (human) (UniProt Q13043)
# [26] = molecular target: TBK1 (human) (UniProt Q9UHD2)
# [27] = molecular target: BRSK1 (human) (UniProt Q8TDC3)
# [28] = molecular target: CAMK2G (human) (UniProt Q13555)
# [29] = molecular target: CLK3 (human) (UniProt P49761)
# [30] = molecular target: CSNK1G3 (human) (UniProt Q9Y6M4)
# [31] = molecular target: CSNK2A2 (human) (UniProt P19784)
# [32] = molecular target: DCLK2 (human) (UniProt Q8N568)
# [33] = tested on: EGFR (human), P00533 [T790M/L858R]
# [34] = tested on: FGFR1 (human), P11362 [V561M]
# [35] = molecular target: GSG2 (human) (UniProt Q8TF76)
# [36] = molecular target: MAPK1 (human) (UniProt P28482)
# [37] = molecular target: NEK11 (human) (UniProt Q8NG66)
# [38] = molecular target: NLK (human) (UniProt Q9UBE8)
# [39] = molecular target: PHKG2 (human) (UniProt P15735)
# [40] = molecular target: PRKCB1 (human) (UniProt P05771)
# [41] = molecular target: PRKG2 (human) (UniProt Q13237)
# Chain of CDK1 CCNB1 (human) (P06493 whole entry, looked up): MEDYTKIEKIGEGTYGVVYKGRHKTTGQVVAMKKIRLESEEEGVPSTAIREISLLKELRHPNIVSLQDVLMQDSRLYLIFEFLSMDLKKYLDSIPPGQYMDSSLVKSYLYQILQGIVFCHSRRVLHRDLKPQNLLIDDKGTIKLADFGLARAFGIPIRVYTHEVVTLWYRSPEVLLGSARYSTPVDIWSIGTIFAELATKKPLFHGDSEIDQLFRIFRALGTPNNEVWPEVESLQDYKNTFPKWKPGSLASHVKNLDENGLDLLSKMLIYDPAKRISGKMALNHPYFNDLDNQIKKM
# Chain of CDK1 CCNB1 (human) (P14635 whole entry, looked up): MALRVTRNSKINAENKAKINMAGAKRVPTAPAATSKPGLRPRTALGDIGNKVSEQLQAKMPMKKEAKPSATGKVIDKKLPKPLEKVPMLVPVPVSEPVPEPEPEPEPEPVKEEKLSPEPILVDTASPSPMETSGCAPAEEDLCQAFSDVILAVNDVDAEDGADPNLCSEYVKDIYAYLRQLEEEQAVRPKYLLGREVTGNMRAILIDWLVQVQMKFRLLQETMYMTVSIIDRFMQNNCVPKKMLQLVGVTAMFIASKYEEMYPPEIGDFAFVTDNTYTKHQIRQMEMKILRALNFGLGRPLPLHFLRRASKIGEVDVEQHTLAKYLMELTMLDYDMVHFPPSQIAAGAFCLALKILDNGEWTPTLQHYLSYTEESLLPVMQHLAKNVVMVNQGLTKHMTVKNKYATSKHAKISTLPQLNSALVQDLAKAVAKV
# Chain of ACVR1B (human) (P36896 whole entry, looked up): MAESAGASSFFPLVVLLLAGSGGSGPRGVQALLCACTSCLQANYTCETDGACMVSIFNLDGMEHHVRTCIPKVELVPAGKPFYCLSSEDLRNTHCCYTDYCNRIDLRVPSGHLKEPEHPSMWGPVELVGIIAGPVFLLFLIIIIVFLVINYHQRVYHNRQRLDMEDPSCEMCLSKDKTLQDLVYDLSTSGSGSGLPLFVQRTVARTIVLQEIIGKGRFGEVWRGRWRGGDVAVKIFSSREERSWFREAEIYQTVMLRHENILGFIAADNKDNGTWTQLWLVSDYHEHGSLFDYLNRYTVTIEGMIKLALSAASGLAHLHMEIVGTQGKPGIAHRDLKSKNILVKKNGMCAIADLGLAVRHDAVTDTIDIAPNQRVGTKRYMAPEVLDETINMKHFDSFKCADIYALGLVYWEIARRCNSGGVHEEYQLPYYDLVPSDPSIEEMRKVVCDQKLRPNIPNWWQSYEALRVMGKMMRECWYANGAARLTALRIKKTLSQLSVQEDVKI
smiles,measurement,setting,value
Cc1n[nH]c2c1c(=O)n(CCCN)c1ccc(Cl)cc21,residual activity,[1]; compound 1.0 µM,138%
same,residual activity,[2]; compound 1.0 µM,90%
same,residual activity,[3]; compound 1.0 µM,45%
same,residual activity,[4]; compound 1.0 µM,183%
same,residual activity,[5]; compound 1.0 µM,96%
same,residual activity,[6]; compound 1.0 µM,105%
same,residual activity,[7]; compound 1.0 µM,99%
same,residual activity,[8]; compound 1.0 µM,41%
same,residual activity,[9]; compound 1.0 µM,99%
same,residual activity,[10]; compound 1.0 µM,105%
same,residual activity,[11]; compound 1.0 µM,103%
same,residual activity,[12]; compound 1.0 µM,100%
same,residual activity,[13]; compound 1.0 µM,100%
same,residual activity,[14]; compound 1.0 µM,107%
same,residual activity,[15]; compound 1.0 µM,117%
same,residual activity,[16]; compound 1.0 µM,86%
same,residual activity,[17]; compound 1.0 µM,91%
same,residual activity,[18]; compound 1.0 µM,31%
same,residual activity,[19]; compound 1.0 µM,98%
same,residual activity,[20]; compound 1.0 µM,93%
same,residual activity,[21]; compound 1.0 µM,87%
same,residual activity,[22]; compound 1.0 µM,18%
same,residual activity,[23]; compound 1.0 µM,108%
same,residual activity,[24]; compound 1.0 µM,90%
same,residual activity,[25]; compound 1.0 µM,32%
same,residual activity,[26]; compound 1.0 µM,59%
C[C@@H](Nc1nc2c(C#CC3CC3)c[nH]c(=O)c2c2cc(-c3cn[nH]c3)ccc12)C(C)(C)C,residual activity,[1]; compound 1.0 µM,93%
same,residual activity,[2]; compound 1.0 µM,102%
same,residual activity,[27]; compound 1.0 µM,29%
same,residual activity,[3]; compound 1.0 µM,63%
same,residual activity,[28]; compound 1.0 µM,13%
same,residual activity,[4]; compound 1.0 µM,100%
same,residual activity,[5]; compound 1.0 µM,102%
same,residual activity,[29]; compound 1.0 µM,108%
same,residual activity,[30]; compound 1.0 µM,113%
same,residual activity,[31]; compound 1.0 µM,112%
same,residual activity,[32]; compound 1.0 µM,112%
same,residual activity,[6]; compound 1.0 µM,76%
same,residual activity,[7]; compound 1.0 µM,68%
same,residual activity,[33]; compound 1.0 µM,12%
same,residual activity,[8]; compound 1.0 µM,92%
same,residual activity,[34]; compound 1.0 µM,73%
same,residual activity,[9]; compound 1.0 µM,105%
same,residual activity,[35]; compound 1.0 µM,158%
same,residual activity,[10]; compound 1.0 µM,82%
same,residual activity,[11]; compound 1.0 µM,104%
same,residual activity,[12]; compound 1.0 µM,106%
same,residual activity,[13]; compound 1.0 µM,56%
same,residual activity,[14]; compound 1.0 µM,93%
same,residual activity,[15]; compound 1.0 µM,104%
same,residual activity,[36]; compound 1.0 µM,99%
same,residual activity,[16]; compound 1.0 µM,30%
same,residual activity,[17]; compound 1.0 µM,96%
same,residual activity,[37]; compound 1.0 µM,116%
same,residual activity,[38]; compound 1.0 µM,85%
same,residual activity,[18]; compound 1.0 µM,103%
same,residual activity,[39]; compound 1.0 µM,76%
same,residual activity,[40]; compound 1.0 µM,94%
same,residual activity,[19]; compound 1.0 µM,78%
same,residual activity,[41]; compound 1.0 µM,88%
same,residual activity,[20]; compound 1.0 µM,105%
same,residual activity,[21]; compound 1.0 µM,29%
same,residual activity,[22]; compound 1.0 µM,23%
same,residual activity,[23]; compound 1.0 µM,107%
same,residual activity,[24]; compound 1.0 µM,115%
same,residual activity,[25]; compound 1.0 µM,30%
same,residual activity,[26]; compound 1.0 µM,78%
CC(C)(C)c1nc2c3ccc(F)cc3c3c(=O)[nH]ccc3c2[nH]1,residual activity,[36]; compound 10.0 µM,33%
O=C(N[C@@H](COc1ccc2[nH]c(=O)[nH]c2c1)c1ccccc1)c1cccn(Cc2ccc(F)c(F)c2)c1=O,residual activity,[1]; compound 10.0 µM,115%
same,residual activity,[2]; compound 10.0 µM,99%
same,residual activity,[27]; compound 10.0 µM,109%
same,residual activity,[3]; compound 10.0 µM,96%
same,residual activity,[28]; compound 10.0 µM,97%
same,residual activity,[4]; compound 10.0 µM,111%
same,residual activity,[5]; compound 10.0 µM,125%
same,residual activity,[29]; compound 10.0 µM,115%
same,residual activity,[30]; compound 10.0 µM,99%
same,residual activity,[31]; compound 10.0 µM,105%
same,residual activity,[32]; compound 10.0 µM,121%
same,residual activity,[6]; compound 10.0 µM,102%
same,residual activity,[7]; compound 10.0 µM,96%
same,residual activity,[33]; compound 10.0 µM,99%
same,residual activity,[8]; compound 10.0 µM,122%
same,residual activity,[34]; compound 10.0 µM,103%
same,residual activity,[9]; compound 10.0 µM,108%
same,residual activity,[35]; compound 10.0 µM,74%
same,residual activity,[10]; compound 10.0 µM,92%
same,residual activity,[11]; compound 10.0 µM,108%
same,residual activity,[12]; compound 10.0 µM,106%
same,residual activity,[13]; compound 10.0 µM,98%
same,residual activity,[14]; compound 10.0 µM,111%
same,residual activity,[15]; compound 10.0 µM,99%
same,residual activity,[36]; compound 10.0 µM,89%
same,residual activity,[16]; compound 10.0 µM,101%
same,residual activity,[17]; compound 10.0 µM,98%
same,residual activity,[37]; compound 10.0 µM,126%
same,residual activity,[38]; compound 10.0 µM,100%
same,residual activity,[18]; compound 10.0 µM,101%
same,residual activity,[39]; compound 10.0 µM,101%
same,residual activity,[40]; compound 10.0 µM,95%
same,residual activity,[19]; compound 10.0 µM,108%
same,residual activity,[41]; compound 10.0 µM,108%
same,residual activity,[20]; compound 10.0 µM,116%
same,residual activity,[21]; compound 10.0 µM,109%
same,residual activity,[22]; compound 10.0 µM,102%
same,residual activity,[23]; compound 10.0 µM,102%
same,residual activity,[24]; compound 10.0 µM,114%
same,residual activity,[25]; compound 10.0 µM,103%
same,residual activity,[26]; compound 10.0 µM,93%
